Measured values reported in patent publication US8158811B2, “Unsaturated fatty hydroxy acid derivatives and the dermocosmetologic use thereof” (Pierre Fabre Dermo-Cosmetique, priority 2005, dated 2012).

Columns and labels:
ABCG1 = assay: keratinocyte differentiation, real-time RT-PCR of ABCG1 transcripts; type: cell-based, human; conditions: NHK, 48 hours
Protocol: (§1) Normal human keratinocytes (NHK) proliferate and differentiate in vitro, forming stratified layers which mimic the basal organisation of the skin. Extracellular calcium concentrations in excess of 0.1 mM initiate a cascade of genome and non-genome events which take the keratinocytes from a proliferative phase towards a differentiation phase. Keratinocyte differentiation can then be evaluated by studying the expression of several markers such as keratins 1 and 10, transglutaminase 1, desaturase DES2, involucrine, FATP4 and ABCG1 transporters. We therefore evaluated the effect of certain hydroxyalcene carboxylic acids in an in vitro culture model.
(§2) Normal human keratinocytes are isolated from skin explants. They are cultured in KSFM medium (Gibco) with a low calcium content (0.1 mM) containing 25 μg/ml of BPE (bovine pituitary extract) and […] of EGF (epithelium growth factor). 24 hours after culturing, differentiation is triggered by the addition of calcium (final concentration 1.2 mM). The active ingredients are added or not at the same time as calcium at concentrations of 100 and 1 μg/ml in order to determine whether or not they have a potentialising effect on differentiation. Cells were then analysed 48 hours after the addition of calcium and these products.
(§3) Total RNA was extracted under cold conditions from keratinocytes.
(§4) After reverse transcription of mRNA into cDNA, PCRs were made up in 96 well plates (iCycler quantitative PCR apparatus, BioRad). Expression of transcripts of transglutaminase, desaturase (DES2), ABCG1 and FATP4 were standardized with respect to the expression of reference genes (GAPDH, UBC, HPRT).

prostaglandin 6KF1α = assay: production of prostaglandin 6KF1α by keratinocytes stimulated with calcium ionophore A23187 (ELISA); type: cell-based; conditions: 3 μg/ml, A23187 1 μm 5 hours
Protocol: A suspension of keratinocytes in DMEM 10% foetal calf serum was divided into 6 well plates (1.2. 106cells/wells) and incubated for 16 hours at 37° C. in a 5% CO2 atmosphere. The keratinocytes were then rinsed with PBS in order to eliminate non adhering cells then exposed to the products to be tested included in DMEM without foetal calf serum (which could interfere with the assay).
The concentration tested in culture was 3 μg/ml. This was retained as the test concentration after a preliminary evaluation test for cytotoxicity (neutral red) and is not cytotoxic.
For each treatment, three wells were tested. Cells were pre-incubated for 60 minutes with the products to be tested then a stimulating agent was added to stimulate the arachidonic acid cascade (calcium ionophore) which was added for 5 hours: calcium ionophore A23187 was used at a concentration of 1 μm.
After 5 hours in culture, the culture medium for each well was recovered, centrifuged at 3000 rpm and stored at −80° C.
The production of prostaglandin 6KF1α for each of the tests was measured using a EUROMEDEX Elisa Kit.
Results are expressed as the percentage activity/stimulated control.

FATP4 = assay: keratinocyte differentiation, real-time RT-PCR of FATP4 transcripts; type: cell-based, human; conditions: NHK, 48 hours
Protocol: as §1, §2, §3, §4

Interleukin 8 = assay: release of Interleukin 8 by keratinocytes NHK stimulated with PMA + calcium ionophore A23187 (ELISA); type: cell-based, human; conditions: for % inhibition of IL-8 release: 3 μg/ml, keratinocytes, PMA + A23187 6 hours
[1] = system: membrane lipids, fibroblast line L929; assay: TBARS test, lipid peroxidation after H2O2/Fe2+/Fe3+; type: cell-based, murin; conditions: 0.02 ng/ml, pretreated 16 hours
Source text: In order to evaluate membrane changes, we measured lipid peroxidation by in vitro assay of complexes between the products of lipid oxidation and thiobarbituric acid. These complexes are called TBARS (thiobarbituric acid reactive substances) and give the test its name: TBARS Test.
In order to mimic chemical oxidative stress, we treated a fibroblast line (L929) with a complex consisting of hydrogen peroxide (H2O2) and iron (Fe^2+/Fe^3+) thus reconstituting the Fenton reaction which is the source of oxygenated free radicals and particularly the hydroxyl radical (OH°) (D. A Vessey et al. 1992): H2O2+Fe^2+→OH°+OH^−+Fe^3+
The products were evaluated on a murin fibroblast line L929. Cells were pretreated with different concentrations of the product for 16 hours and were then stimulated with the H2O2/Fe^2+/Fe^3+ complex (200 μM−1 mM) for 1 hour. • Stock solutions: 100 mg/ml ethanol, 4° C. • Final solutions: 0.02 ng/ml.
Peroxidation of membrane lipids was analysed by measuring TBARS (Protocol ref. PLN°2, according to Morliere et al, 1991).
[…]. TBARS assays are therefore expressed in pmole/μg of protein. Proteins and TBARS are assayed in the intracellular medium.
Using the TBARS calculation in pmole/μg protein, we calculated the protective efficacy of various products against the oxidation of lipid membranes.
Four separate experiments were carried out. Several compounds were evaluated in the course of these experiments (the test only allows 10 molecules to be evaluated at one time). The compounds were evaluated several times and were chosen as a function of the results obtained in another test which also measured anti-radical activity (assay test for activated oxygen species).
The model used in this experiment (Fenton reaction) triggers considerable lipid peroxidation of the L929 fibroblasts. This massive release of the hydroxyl radical OH° thus generates oxidative stress in the cells, particularly in the membranes. However, in this type of oxidative reaction, the products resulting from lipid peroxidation are internalized in the cells and TBARS are therefore assayed in the intracellular medium.

desaturase DES2 = assay: keratinocyte differentiation, real-time RT-PCR of DES2 transcripts; type: cell-based, human; conditions: NHK, 48 hours
Protocol: as §1, §2, §3, §4

transglutaminase 1 (TG1) = assay: keratinocyte differentiation, real-time RT-PCR of transglutaminase 1 transcripts; type: cell-based, human; conditions: NHK, 48 hours
Protocol: as §1, §2, §3, §4

Row | SMILES | Induction Factor vs Control (CaCl2 1.2 mM) ABCG1 (ABCG1; 1 μg/ml) | Induction Factor vs Control (CaCl2 1.2 mM) ABCG1 (ABCG1; 100 μg/ml) | % inhibiting activity of evaluated molecules on the production of PG6KF1α Inflammation (prostaglandin 6KF1α) [%] | Induction Factor vs Control (CaCl2 1.2 mM) FATP4 (FATP4; 1 μg/ml) | Induction Factor vs Control (CaCl2 1.2 mM) FATP4 (FATP4; 100 μg/ml) | % inhibition of IL-8 release (Interleukin 8) [%] | % membrane lipid protection, Mean [1] [%] | Induction Factor vs Control (CaCl2 1.2 mM) DES2 (desaturase DES2; 1 μg/ml) | Induction Factor vs Control (CaCl2 1.2 mM) DES2 (desaturase DES2; 100 μg/ml) | Induction Factor vs Control (CaCl2 1.2 mM) TG1 (transglutaminase 1 (TG1); 1 μg/ml) | Induction Factor vs Control (CaCl2 1.2 mM) TG1 (transglutaminase 1 (TG1); 100 μg/ml) | % Inhibition a 3 μg/ml (Interleukin 8; IL8 release, NHK, PMA + A23187) [%]
1 | O=C(O)C(F)=CCCCCCCCCCCCO [n=10, R=H, Rn=H, R1=F, 14-hydroxy-tetradec-2-fluoro-2-enoic acid] | 1.4 | 4.6 | 18 | 1.0 | 2.3 | 30 | 13.13 | 1.6 | 16.0 | 1.4 | 3.5 | –
2 | O=C(O)C=CCCCCO [n=3, R=H, Rn=H, R1=H] | 1.5 | 4.0 | 29 | 1.4 | 1.2 | 50 | 15.7 | 1.6 | 2.4 | 1.2 | 2.6 | –
3 | O=C(O)C(F)=CCCCCCCCCCCCCCCO [n=13, R=H, Rn=H, R1=F, 17-hydroxy-heptadec-2-fluoro-2-enoic acid] | 4.8 | – | 14 | 2.2 | – | 107 | 7.39 | 9.0 | – | 4.2 | – | 107
4 | O=C(O)/C=C/CCCCCCCCCCO [n=9, R=H, Rn=H, R1=H, 13-hydroxy-tridec-2t-enoic acid] | 1.5 | 13.8 | 31 | 1.2 | 4.5 | 16 | 8.72 | 1.8 | 51.7 | 1.4 | 14.8 | –
